According to patent US5200424A, “Use of 10-membered ring lactones as lipid regulators” (priority 1990, dated 1993):
Read-outs that look alike come from different tables or passages of the source.

Experiments:
[1] = system: cholesterol biosynthesis in HEP-G2 cells; assay: Cholesterol biosynthesis inhibition in HEP-G2 liver cell cultures (14C-acetate); type: cell-based; details: Homo sapiens, 3 h with (14C)acetate
Description: (§1) Monolayers of HEP-G2 cells in liproprotein-free nutrient medium are preincubated with appropriate concentrations of the substances of the formula I to be tested for one hour. After addition of the […] biosynthesis precursor sodium (^14 C)acetate the incubation is continued for 3 hours. After this a portion of the cells is subjected to alkaline hydrolysis after addition of an internal standard of ^3 H-cholesterol. The lipids from the hydrolyzed cells are extracted with a chloroform/methanol mixture. This lipid mixture is, after addition of carrier cholesterol, fractionated by preparative thin-layer chromatography, the cholesterol band is stained and then isolated, and the amount of ^14 C-cholesterol formed from the ^14 C-precursor is determined by scintigraphy. Cellular protein was determined in an aliquot of the cells so that the amount of ^14 C-cholesterol formed from ^14 C-precursor per mg of cellular protein per unit time can be calculated. The control is used for comparison for the inhibitory effect of an added test product so that it is possible to state directly the inhibition of the cholesterol biosynthesis at a particular molar concentration of the test product in the medium. The integrity of the cell culture and the absence of cell damage owing to exposure to the product is assessed morphologically (light microscopy) and measured biochemically by determining the lactic dehydrogenase release into the incubation medium on aliquots of the cell culture.

serum lipoproteins = assay: Lipoprotein fractionation by ultracentrifugation in rats (serum cholesterol, protein, triglycerides; hypolipemic effect); type: in vivo, Rat, male, strain: HOE WISKf (SPF 71); details: for % Change compared with control, Protein LDL / % Change compared with control, Protein VLDL / % Change compared with control, Total cholesterol HDL / % Change compared with control, Total cholesterol LDL / % Change compared with control, Total cholesterol VLDL / % Change compared with control, Triglycerides VLDL / Cholesterol HDL/LDL Based on control / Cholesterol HDL/LDL: male rat, by gavage; for % Change compared with control, Protein LDL / % Change compared with control, Protein VLDL / % Change compared with control, Total cholesterol HDL / % Change compared with control, Total cholesterol LDL / % Change compared with control, Total cholesterol VLDL / % Change compared with control, Triglycerides VLDL: 7 administrations; for Cholesterol HDL/LDL Based on control: control 1.00; for Cholesterol HDL/LDL: control 3.75
Description: Male rats with an initial weight above 180 g received the test product of the formula I in polyethylene glycol 400 by gavage once a day (in the morning) (0.5 ml/100 g of body weight); the relevant control group received only the same amount of solvent. The last (7th) administration took place 24 hours before blood sampling and sacrifice. There was free access to feed and water during the test. Feed was withdrawn 24 hours before the retroorbital blood sampling, which took place under light ether anesthesia before and after the treatment period (that is to say on the 1st and 8th day). Serum glutamic-oxalate transaminase (SGOT), serum glutamic-pyruvic transaminase (SGPT), alkaline phosphatase (aP), bilirubin and creatinine were determined in the serum of each individual animal. […] Immediately after the blood sampling the animals were sacrificed by distortion of the spinal column. The livers were removed, and the relative liver weight was determined. In addition, the body weight gain and the feed consumption were investigated. The statistical analysis was carried out by Student's t test.
To analyze the serum lipoproteins, after the treatment period the serum of all rats in a group was pooled.

[2] = Serum enzymes, bilirubin and creatinine in rats; type: in vivo, Rat, male, strain: HOE WISKf (SPF 71); details: for Bilirubin, Final, mean / Creatinine, Final, mean / Serum enzymes SGOT, Final, mean / Serum enzymes SGPT, Final, mean / Serum enzymes aP, Final, mean / Bilirubin, Initial, mean / Creatinine, Initial, mean / Serum enzymes SGOT, Initial, mean / Serum enzymes SGPT, Initial, mean / Serum enzymes aP, Initial, mean: male rat; for Bilirubin, Final, mean / Creatinine, Final, mean / Serum enzymes SGOT, Final, mean / Serum enzymes SGPT, Final, mean / Serum enzymes aP, Final, mean: after treatment (8th day); for Bilirubin, Initial, mean / Creatinine, Initial, mean / Serum enzymes SGOT, Initial, mean / Serum enzymes SGPT, Initial, mean / Serum enzymes aP, Initial, mean: before treatment (1st day)
Description: (§2) Male rats with an initial weight above 180 g received the test product of the formula I in polyethylene glycol 400 by gavage once a day (in the morning) (0.5 ml/100 g of body weight); the relevant control group received only the same amount of solvent. The last (7th) administration took place 24 hours before blood sampling and sacrifice. There was free access to feed and water during the test. Feed was withdrawn 24 hours before the retroorbital blood sampling, which took place under light ether anesthesia before and after the treatment period (that is to say on the 1st and 8th day). Serum glutamic-oxalate transaminase (SGOT), serum glutamic-pyruvic transaminase (SGPT), alkaline phosphatase (aP), bilirubin and creatinine were determined in the serum of each individual animal. The total glycerol was measured from the pooled serum of all animals in a group as measure of the triglycerides (Eggstein, M. Kreutz, F. H.: Klin. Wschr. 44, 262 and 267 (1966); Wahlefeld, A. W., in: H. O. Bergmeier: Methoden der enzymatischen Analyse (Methods of enzymatic analysis), 2nd Edition, Volume II, Verlag Chemie 1974, Page 1878). Immediately after the blood sampling the animals were sacrificed by distortion of the spinal column. The livers were removed, and the relative liver weight was determined. In addition, the body weight gain and the feed consumption were investigated. The statistical analysis was carried out by Student's t test.

[3] = Body weight, relative liver weight and feed consumption in rats; type: in vivo, Rat, male, strain: HOE WISKf (SPF 71); details: for % Change from control, Body weight after / % Change from control, rel. feed consumption after: male rat, after treatment
Description: as §2

HEP-G2 cells = assay: Integrity of the cell culture / cell damage (light microscopy, lactic dehydrogenase release); type: cell-based
Description: as §1, with “The control is used for comparison for the inhibitory effect of an added test product so that it is possible to state directly the inhibition of the cholesterol biosynthesis at a particular molar concentration of the test product in the medium.” left out

[4] = HepG2, standard products, 1 h preincubation, read-out: IC50, inhibition of cholesterol biosynthesis

CC1CC(O)C=CC(O)C(O)CC(=O)O1 (stereo not drawn)
IC50 ([1]; HepG2, 1 h preincubation, read-out: inhibits biosynthesis by 50% at): 100 nM
% Change compared with control, Protein LDL (serum lipoproteins; 15 mg/kg/day): -20%
% Change compared with control, Protein VLDL (serum lipoproteins; 15 mg/kg/day): -12%
% Change compared with control, Total cholesterol HDL (serum lipoproteins; 15 mg/kg/day): -13%
% Change compared with control, Total cholesterol LDL (serum lipoproteins; 15 mg/kg/day): -31%
% Change compared with control, Total cholesterol VLDL (serum lipoproteins; 15 mg/kg/day): -40%
% Change compared with control, Triglycerides VLDL (serum lipoproteins; 15 mg/kg/day): -22%
Cholesterol HDL/LDL Based on control (serum lipoproteins; 15 mg/kg/day): 1.26
Cholesterol HDL/LDL (serum lipoproteins; 15 mg/kg/day): 4.74
reduction in the triglycerides (mainly transported in the VLDL) (serum lipoproteins; rat): distinct reduction
vasoprotective index HDL-cholesterol: LDL-cholesterol (serum lipoproteins; rat): significant increase
reduction in the atherogenic serum lipoproteins LDL and VLDL (cholesterol content) (serum lipoproteins; rat, at one seventh of the dose of clofibrate, compared with clofibrate): equally great reduction
reduction in the HDL fraction (serum lipoproteins; rat, compared with clofibrate): only half as large
vasoprotective index HDL-cholesterol: LDL-cholesterol compared with clofibrate (serum lipoproteins; rat, compared with clofibrate): distinctly higher than with clofibrate
Bilirubin, Final, mean ([2]; 15 mg/kg/day): 2.0 µmol/L
Creatinine, Final, mean ([2]; 15 mg/kg/day): 64 µmol/L
Serum enzymes SGOT, Final, mean ([2]; 15 mg/kg/day): 56 U/L
Serum enzymes SGPT, Final, mean ([2]; 15 mg/kg/day): 25 U/L
Serum enzymes aP, Final, mean ([2]; 15 mg/kg/day): 247 U/L
Bilirubin, Initial, mean ([2]; 15 mg/kg/day): 2.8 µmol/L
Creatinine, Initial, mean ([2]; 15 mg/kg/day): 67 µmol/L
Serum enzymes SGOT, Initial, mean ([2]; 15 mg/kg/day): 41 U/L
Serum enzymes SGPT, Initial, mean ([2]; 15 mg/kg/day): 29 U/L
Serum enzymes aP, Initial, mean ([2]; 15 mg/kg/day): 359 U/L
tolerability parameters: SGOT, SGPT, aP, serum bilirubin and serum creatinine ([2]; rat): not pathologically changed
% Change from control, Body weight after ([3]; 15 mg/kg/day): -3%
% Change from control, rel. feed consumption after ([3]; 15 mg/kg/day): -1%
cell culture damage (HEP-G2 cells): not damaged

C[C@H](CCCC(C)(C)O)[C@H]1CC[C@H]2[C@@H]3CC=C4C[C@@H](O)CC[C@]4(C)[C@H]3CC[C@]12C [25-hydroxycholesterol]
IC50 [1, 4]: 230 nM

CCOC(=O)C(C)(C)Oc1ccc(Cl)cc1 [Clofibrate, clofibrate]
% Change compared with control, Protein LDL (serum lipoproteins; 100 mg/kg/day): +2%
% Change compared with control, Protein VLDL (serum lipoproteins; 100 mg/kg/day): +5%
% Change compared with control, Total cholesterol HDL (serum lipoproteins; 100 mg/kg/day): -26%
% Change compared with control, Total cholesterol LDL (serum lipoproteins; 100 mg/kg/day): -31%
% Change compared with control, Total cholesterol VLDL (serum lipoproteins; 100 mg/kg/day): -46%
% Change compared with control, Triglycerides VLDL (serum lipoproteins; 100 mg/kg/day): +2%
Cholesterol HDL/LDL Based on control (serum lipoproteins; 100 mg/kg/day): 1.08
Cholesterol HDL/LDL (serum lipoproteins; 100 mg/kg/day): 4.03
relative liver weight ([3]; rat, in vivo): increased

CC[C@H](C)C(=O)O[C@H]1C[C@@H](C)C=C2C=C[C@H](C)[C@H](CC[C@@H]3C[C@@H](O)CC(=O)O3)[C@H]21 [Lovastatin, lovastatin]
IC50 [1, 4]: 23 nM
% Change compared with control, Protein LDL (serum lipoproteins; 10 mg/kg/day): -16%
% Change compared with control, Protein VLDL (serum lipoproteins; 10 mg/kg/day): -22%
% Change compared with control, Total cholesterol HDL (serum lipoproteins; 10 mg/kg/day): -14%
% Change compared with control, Total cholesterol LDL (serum lipoproteins; 10 mg/kg/day): -2%
% Change compared with control, Total cholesterol VLDL (serum lipoproteins; 10 mg/kg/day): -32%
% Change compared with control, Triglycerides VLDL (serum lipoproteins; 10 mg/kg/day): -15%
Cholesterol HDL/LDL Based on control (serum lipoproteins; 10 mg/kg/day): 0.89
Cholesterol HDL/LDL (serum lipoproteins; 10 mg/kg/day): 3.32
% Change compared with control, Protein LDL (serum lipoproteins; 50 mg/kg/day): -19%
% Change compared with control, Protein VLDL (serum lipoproteins; 50 mg/kg/day): -40%
% Change compared with control, Total cholesterol HDL (serum lipoproteins; 50 mg/kg/day): -15%
% Change compared with control, Total cholesterol LDL (serum lipoproteins; 50 mg/kg/day): -26%
% Change compared with control, Total cholesterol VLDL (serum lipoproteins; 50 mg/kg/day): -52%
% Change compared with control, Triglycerides VLDL (serum lipoproteins; 50 mg/kg/day): -38%
Cholesterol HDL/LDL Based on control (serum lipoproteins; 50 mg/kg/day): 1.14
Cholesterol HDL/LDL (serum lipoproteins; 50 mg/kg/day): 4.29
% Change compared with control, Protein LDL (serum lipoproteins; 300 mg/kg/day): +5%
% Change compared with control, Protein VLDL (serum lipoproteins; 300 mg/kg/day): -37%
% Change compared with control, Total cholesterol HDL (serum lipoproteins; 300 mg/kg/day): -9%
% Change compared with control, Total cholesterol LDL (serum lipoproteins; 300 mg/kg/day): +3%
% Change compared with control, Total cholesterol VLDL (serum lipoproteins; 300 mg/kg/day): -49%
% Change compared with control, Triglycerides VLDL (serum lipoproteins; 300 mg/kg/day): -34%
Cholesterol HDL/LDL Based on control (serum lipoproteins; 300 mg/kg/day): 0.89
Cholesterol HDL/LDL (serum lipoproteins; 300 mg/kg/day): 3.33
effect on LDL-cholesterol compared with the compound according to the invention (serum lipoproteins; rat): distinctly inferior
effect on VLDL and HDL compared with the compound according to the invention (serum lipoproteins; rat): about identical
Bilirubin, Final, mean ([2]; 10 mg/kg/day): 2.7 µmol/L
Creatinine, Final, mean ([2]; 10 mg/kg/day): 65 µmol/L
Serum enzymes SGOT, Final, mean ([2]; 10 mg/kg/day): 59 U/L
Serum enzymes SGPT, Final, mean ([2]; 10 mg/kg/day): 25 U/L
Serum enzymes aP, Final, mean ([2]; 10 mg/kg/day): 302 U/L
Bilirubin, Initial, mean ([2]; 10 mg/kg/day): 3.8 µmol/L
Creatinine, Initial, mean ([2]; 10 mg/kg/day): 60 µmol/L
Serum enzymes SGOT, Initial, mean ([2]; 10 mg/kg/day): 42 U/L
Serum enzymes SGPT, Initial, mean ([2]; 10 mg/kg/day): 31 U/L
Serum enzymes aP, Initial, mean ([2]; 10 mg/kg/day): 409 U/L
Bilirubin, Final, mean ([2]; 50 mg/kg/day): 2.5 µmol/L
Creatinine, Final, mean ([2]; 50 mg/kg/day): 62 µmol/L
Serum enzymes SGOT, Final, mean ([2]; 50 mg/kg/day): 89 U/L
Serum enzymes SGPT, Final, mean ([2]; 50 mg/kg/day): 46 U/L
Serum enzymes aP, Final, mean ([2]; 50 mg/kg/day): 324 U/L
Bilirubin, Initial, mean ([2]; 50 mg/kg/day): 2.9 µmol/L
Creatinine, Initial, mean ([2]; 50 mg/kg/day): 60 µmol/L
Serum enzymes SGOT, Initial, mean ([2]; 50 mg/kg/day): 38 U/L
Serum enzymes SGPT, Initial, mean ([2]; 50 mg/kg/day): 31 U/L
Serum enzymes aP, Initial, mean ([2]; 50 mg/kg/day): 355 U/L
Bilirubin, Final, mean ([2]; 300 mg/kg/day): 2.9 µmol/L
Creatinine, Final, mean ([2]; 300 mg/kg/day): 61 µmol/L
Serum enzymes SGOT, Final, mean ([2]; 300 mg/kg/day): 107 U/L
Serum enzymes SGPT, Final, mean ([2]; 300 mg/kg/day): 44 U/L
Serum enzymes aP, Final, mean ([2]; 300 mg/kg/day): 369 U/L
Bilirubin, Initial, mean ([2]; 300 mg/kg/day): 2.7 µmol/L
Creatinine, Initial, mean ([2]; 300 mg/kg/day): 64 µmol/L
Serum enzymes SGOT, Initial, mean ([2]; 300 mg/kg/day): 59 U/L
Serum enzymes SGPT, Initial, mean ([2]; 300 mg/kg/day): 32 U/L
Serum enzymes aP, Initial, mean ([2]; 300 mg/kg/day): 386 U/L
transaminase SGOT change ([2]; rat): dose-dependent and distinctly pathological change
% Change from control, Body weight after ([3]; 10 mg/kg/day): +4%
% Change from control, rel. feed consumption after ([3]; 10 mg/kg/day): +8%
% Change from control, Body weight after ([3]; 50 mg/kg/day): 0%
% Change from control, rel. feed consumption after ([3]; 50 mg/kg/day): +4%
% Change from control, Body weight after ([3]; 300 mg/kg/day): +1%
% Change from control, rel. feed consumption after ([3]; 300 mg/kg/day): +1%
